Measured values: patent US20260217701A1, “SELECTIVE BET INHIBITORS AND USES THEREOF” (Tay Therapeutics Limited, priority 2022, published 2026)
Values joined by “and” are separate entries in the source; they are usually repeats but may differ in a detail not shown here. Equal entries are not always repeated. Marks after values point to notes of the source that are not given here.

Legend:
[1] = CIA study: animal body weight; details: for Average animal body weight percent change: CIA; for Animal body weight percent change (%): Group 3 (CIA + Dexamethasone), individual animals
anti-collagen IgG1 = assay: CIA model: rat anti-collagen IgG1 levels; assay type: in vivo, Lewis rats; design: Average rat anti-collagen IgG1 levels, Mean: unit not given here; details: Group 3 (CIA + Dexamethasone)

C[C@@H]1C[C@H]2[C@@H]3CCC4=CC(=O)C=C[C@]4(C)[C@@]3(F)[C@@H](O)C[C@]2(C)[C@@]1(O)C(=O)CO [Dexamethasone, dexamethasone]
Average animal body weight percent change ([1]; Day 0): 0.00%
Animal body weight percent change (%) ([1]; Day 0): 0.00%
Average animal body weight percent change ([1]; Day 1): −2.80%
Animal body weight percent change (%) ([1]; Day 1): 0.66% and −7.41% and −1.72% and −2.37% and 1.20% and −6.21%
Average animal body weight percent change ([1]; Day 2): −3.22%
Animal body weight percent change (%) ([1]; Day 2): −0.66% and −6.79% and 1.15% and −1.78% and −3.01% and −8.07%
Average animal body weight percent change ([1]; Day 3): −4.37%
Animal body weight percent change (%) ([1]; Day 3): −1.99% and 11.11% and 0.57% and −2.96% and −2.41% and −9.94%
Average animal body weight percent change ([1]; Day 4): −4.95%
Animal body weight percent change (%) ([1]; Day 4): −2.65% and −9.26% and −2.30% and −5.33% and −6.02%
Average animal body weight percent change ([1]; Day 5): −4.95%
Animal body weight percent change (%) ([1]; Day 5): −2.65% and −8.02% and −5.17% and −2.96% and −4.82%
Average animal body weight percent change ([1]; Day 6): −4.41%
Animal body weight percent change (%) ([1]; Day 6): −2.65% and 6.17% and −1.72% and −4.73% and −6.63%
Average animal body weight percent change ([1]; Day 7): −3.35%
Animal body weight percent change (%) ([1]; Day 7): −0.66% and −5.56% and 2.30% and −4.14% and −3.61%
Average animal body weight percent change ([1]; Day 8): −3.90%
Average animal body weight percent change ([1]; Day 9): −1.84%
Average animal body weight percent change ([1]; Day 10): −2.30%
Average animal body weight percent change ([1]; Day 11): −1.24%
Average animal body weight percent change ([1]; Day 12): −1.18%
Average animal body weight percent change ([1]; Day 13): −0.91%
Average animal body weight percent change ([1]; Day 14): −1.24%
Average animal body weight percent change ([1]; Day 15): 0.43%
Animal body weight percent change (%) ([1]; Day 15): 9.93% and −3.09% and 2.30% and 0.59% and 1.20% and −6.83% and 2.33% and −0.63%
Average animal body weight percent change ([1]; Day 16): −0.57%
Animal body weight percent change (%) ([1]; Day 16): 3.97% and −5.56% and 7.47% and −0.59% and −4.22% and −8.70% and 1.16% and 1.88%
Average animal body weight percent change ([1]; Day 17): 0.62%
Animal body weight percent change (%) ([1]; Day 17): 5.96% and −4.32% and 8.05% and −2.37% and 0.60% and −6.83% and −1.16% and 5.00%
Average animal body weight percent change ([1]; Day 18): 1.02%
Animal body weight percent change (%) ([1]; Day 18): 3.97% and −6.17% and 8.62% and −2.37% and 0.00% and −5.59% and 4.07% and 5.63%
Average animal body weight percent change ([1]; Day 19): 1.53%
Animal body weight percent change (%) ([1]; Day 19): 7.28% and −9.26% and 10.34% and 0.59% and 1.20% and −5.59% and 5.81% and 1.88%
Average animal body weight percent change ([1]; Day 20): 1.66%
Animal body weight percent change (%) ([1]; Day 20): 7.95% and −3.70% and 5.75% and 2.37% and 0.60% and 4.35% and 4.65% and 0.00%
Average animal body weight percent change ([1]; Day 21): 1.30%
Animal body weight percent change (%) ([1]; Day 21): 8.61% and −3.70% and 7.47% and 0.00% and −3.01% and −5.59% and 2.91% and 3.75%
Average rat anti-collagen IgG1 levels, Mean (anti-collagen IgG1): 7833.69*
